EC50 data for 7 molecules are collected here from patent US8822413B2, “Bifunctional hormone having alpha-MSH activity and natriuretic peptide activity and uses thereof” (Theratechnologies Inc., priority 2007, dated 2014).

Bridge positions count the residues as written; N and C are the ends. Square brackets hold non-standard residues; d marks the D form. Peptide text beside a SMILES is read from it. Nle = CCCC[C@H](N)C(=O)O

The test has as its target T1, ANP receptor (Sus scrofa, UniProt F1SFW3).
T1 construct: ANP receptor-expressing LLC-PK1 cells; endogenous in cells; host or cells: LLC-PK1 cells
T1 sequence (F1SFW3 29-1057): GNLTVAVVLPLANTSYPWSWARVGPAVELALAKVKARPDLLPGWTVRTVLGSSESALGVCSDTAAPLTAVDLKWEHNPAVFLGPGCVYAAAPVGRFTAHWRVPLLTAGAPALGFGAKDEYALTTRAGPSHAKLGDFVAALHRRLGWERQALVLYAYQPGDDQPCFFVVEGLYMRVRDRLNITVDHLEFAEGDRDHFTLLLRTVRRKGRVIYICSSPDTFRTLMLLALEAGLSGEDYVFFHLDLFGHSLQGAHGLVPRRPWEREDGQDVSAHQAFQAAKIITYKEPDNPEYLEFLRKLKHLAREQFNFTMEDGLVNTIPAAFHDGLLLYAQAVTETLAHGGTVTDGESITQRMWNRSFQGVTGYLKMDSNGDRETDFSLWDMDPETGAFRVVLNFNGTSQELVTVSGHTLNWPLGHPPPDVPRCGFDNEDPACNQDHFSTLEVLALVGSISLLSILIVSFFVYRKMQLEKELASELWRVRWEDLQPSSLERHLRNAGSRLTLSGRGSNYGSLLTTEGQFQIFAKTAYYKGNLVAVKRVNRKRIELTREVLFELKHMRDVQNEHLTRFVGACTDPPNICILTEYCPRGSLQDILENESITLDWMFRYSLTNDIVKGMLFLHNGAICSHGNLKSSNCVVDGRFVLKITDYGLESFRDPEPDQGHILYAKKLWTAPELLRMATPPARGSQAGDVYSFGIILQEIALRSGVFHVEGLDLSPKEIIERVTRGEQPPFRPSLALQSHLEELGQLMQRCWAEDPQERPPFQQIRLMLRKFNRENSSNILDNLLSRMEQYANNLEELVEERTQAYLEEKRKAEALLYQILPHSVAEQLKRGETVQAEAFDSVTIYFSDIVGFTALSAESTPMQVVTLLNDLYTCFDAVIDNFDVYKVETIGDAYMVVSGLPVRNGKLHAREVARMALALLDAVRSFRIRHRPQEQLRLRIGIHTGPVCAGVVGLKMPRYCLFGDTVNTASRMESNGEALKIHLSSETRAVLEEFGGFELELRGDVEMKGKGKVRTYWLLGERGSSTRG
Description: cGMP production in ANP receptor-expressing LLC-PK1 cells. Type of test: cell-based. Particulars: 30 min stimulation, 10^-6M through 10^-12M. On the procedure: The bifunctional hormone was tested on ANP receptor-expressing LLC-PK1 cells and on MCR1 receptor-expressing B16-F1 cells. Both cell types were cultured 24 hours before the stimulation, in 96-well plates, at a concentration of 1.0×10^5 cells/ml. Before stimulation, cells were starved 2 hours in DPBS only and incubated 10 min in assay buffer (DPBS containing 20 mM HEPES, 0.1% BSA and 500 μM IBMX). The dose response curve of the bifunctional hormone was done for 30 minutes with concentrations of 10^−6M through 10^−12M. Supernatant was collected and cAMP (B16-F1) or cGMP (LLC-PK1) was measured with a radiolabeled kit from GE Healthcare Company.

A word on the EC50: it is the concentration at which the effect is half-maximal. Read a low EC50 as a more potent agent. With `CC[C@H](C)[C@@H]1NC(=O)[C@H](CCCNC(=N)N)NC(=O)[C@H](CC(=O)O)NC(=O)[C@H](CCSC)NC(=O)[C@H](CCCNC(=N)N)NC(=O)CNC(=O)CNC(=O)[C@H](Cc2ccccc2)NC(=O)[C@@H](NC(=O)[C@H](CO)NC(=O)[C@H](CO)NC(=O)[C@H](CCCNC(=N)N)NC(=O)[C@H](CCCNC(=N)N)NC(=O)CNC(=O)[C@H](Cc2c[nH]c3ccccc23)NC(=O)[C@H](CCCNC(=N)N)NC(=O)[C@@H](Cc2ccccc2)NC(=O)[C@H](Cc2c[nH]cn2)NC(C)=O)CSSC[C@@H](C(=O)N[C@@H](CC(N)=O)C(=O)N[C@@H](CO)C(=O)N[C@@H](Cc2ccccc2)C(=O)N[C@@H](CCCNC(=N)N)C(=O)N[C@@H](Cc2ccc(O)cc2)C(N)=O)NC(=O)CNC(=O)[C@H](CC(C)C)NC(=O)CNC(=O)[C@H](CO)NC(=O)[C@H](CCC(N)=O)NC(=O)[C@H](C)NC(=O)CNC1=O` [SEQ ID NO: 39, Ac-H-f-R-W-G-R-R-S-S-[C-F-G-G-R-M-D-R-I-G-A-Q-S-G-L-G-C]-N-S-F-R-Y-NH2] (Ac-H[dF]RWGRRSSCFGGRMDRIGAQSGLGCNSFRY-NH2; disulfide 10-26), a half-maximal response (NR = No response detected) (EC50) required 52.1 nM.
Regarding `CC[C@H](C)[C@@H]1NC(=O)[C@H](CCCNC(=N)N)NC(=O)[C@H](CC(=O)O)NC(=O)[C@H](CCSC)NC(=O)[C@H](CCCNC(=N)N)NC(=O)CNC(=O)CNC(=O)[C@H](Cc2ccccc2)NC(=O)[C@@H](NC(=O)[C@H](CCSC)NC(=O)[C@@H]2CCCN2C(=O)[C@H](CCCCN)NC(=O)CNC(=O)[C@H](Cc2c[nH]c3ccccc23)NC(=O)[C@H](CCCNC(=N)N)NC(=O)[C@H](Cc2c[nH]cn2)NC(C)=O)CSSC[C@@H](C(=O)N[C@@H](CC(N)=O)C(=O)N[C@@H](CO)C(=O)N[C@@H](Cc2ccccc2)C(=O)N[C@@H](CCCNC(=N)N)C(=O)N[C@@H](Cc2ccc(O)cc2)C(N)=O)NC(=O)CNC(=O)[C@H](CC(C)C)NC(=O)CNC(=O)[C@H](CO)NC(=O)[C@H](CCC(N)=O)NC(=O)[C@H](C)NC(=O)CNC1=O` [SEQ ID NO: 43, Ac-H-R-W-G-K-P-M-[C-F-G-G-R-M-D-R-I-G-A-Q-S-G-L-G-C]-N-S-F-R-Y-NH2] (Ac-HRWGKPMCFGGRMDRIGAQSGLGCNSFRY-NH2; disulfide 8-24), for the setting “NR = No response detected”, the response was half-maximal at 86.8 nM (EC50).
On the same count and under the same terms, as for `CC[C@H](C)[C@@H]1NC(=O)[C@H](CCCNC(=N)N)NC(=O)[C@H](CC(=O)O)NC(=O)[C@H](CCSC)NC(=O)[C@H](CCCNC(=N)N)NC(=O)CNC(=O)CNC(=O)[C@H](Cc2ccccc2)NC(=O)[C@@H](NC(=O)[C@H](CO)NC(=O)[C@H](CO)NC(=O)[C@H](CCCNC(=N)N)NC(=O)[C@H](CCCNC(=N)N)NC(=O)CNC(=O)[C@H](Cc2c[nH]c3ccccc23)NC(=O)[C@H](CCCNC(=N)N)NC(=O)[C@@H](Cc2ccccc2)NC(=O)[C@H](Cc2c[nH]cn2)NC(=O)[C@H](CCC(=O)O)NC(C)=O)CSSC[C@@H](C(=O)N[C@@H](CC(N)=O)C(=O)N[C@@H](CO)C(=O)N[C@@H](Cc2ccccc2)C(=O)N[C@@H](CCCNC(=N)N)C(=O)N[C@@H](Cc2ccc(O)cc2)C(N)=O)NC(=O)CNC(=O)[C@H](CC(C)C)NC(=O)CNC(=O)[C@H](CO)NC(=O)[C@H](CCC(N)=O)NC(=O)[C@H](C)NC(=O)CNC1=O` [SEQ ID NO: 42, Ac-E-H-f-R-W-G-R-R-S-S-[C-F-G-G-R-M-D-R-I-G-A-Q-S-G-L-G-C]-N-S-F-R-Y-NH2] (Ac-EH[dF]RWGRRSSCFGGRMDRIGAQSGLGCNSFRY-NH2; disulfide 11-27), the figure is 502 nM; as for `CC[C@H](C)[C@@H]1NC(=O)[C@H](CCCNC(=N)N)NC(=O)[C@H](CC(=O)O)NC(=O)[C@H](CCSC)NC(=O)[C@H](CCCNC(=N)N)NC(=O)CNC(=O)CNC(=O)[C@H](Cc2ccccc2)NC(=O)[C@H](Cc2c[nH]cn2)NC(=O)[C@@H](NC(=O)[C@H](CCSC)NC(=O)[C@@H]2CCCN2C(=O)[C@H](CCCCN)NC(=O)CNC(=O)[C@H](Cc2c[nH]c3ccccc23)NC(=O)[C@H](CCCNC(=N)N)NC(=O)[C@@H](Cc2ccccc2)NC(=O)[C@H](Cc2c[nH]cn2)NC(C)=O)CSSC[C@@H](C(=O)N[C@@H](Cc2ccc(O)cc2)C(=O)N[C@@H](CCCNC(=N)N)C(N)=O)NC(=O)[C@H](CO)NC1=O` [SEQ ID NO: 31, Ac-H-f-R-W-G-K-P-M-[C-H-F-G-G-R-M-D-R-I-S-C]-Y-R-NH2] (Ac-H[dF]RWGKPMCHFGGRMDRISCYR-NH2; disulfide 9-20), 74.3 nM; as for `CC[C@H](C)[C@@H]1NC(=O)[C@H](CCCNC(=N)N)NC(=O)[C@H](CC(=O)O)NC(=O)[C@H](CCSC)NC(=O)[C@H](CCCNC(=N)N)NC(=O)CNC(=O)CNC(=O)[C@H](Cc2ccccc2)NC(=O)[C@@H](NC(=O)[C@H](CO)NC(=O)[C@H](CO)NC(=O)[C@H](CCCNC(=N)N)NC(=O)[C@H](CCCNC(=N)N)NC(=O)CNC(=O)[C@H](Cc2c[nH]c3ccccc23)NC(=O)[C@H](CCCNC(=N)N)NC(=O)[C@H](Cc2ccccc2)NC(=O)[C@H](Cc2c[nH]cn2)NC(C)=O)CSSC[C@@H](C(=O)N[C@@H](CC(N)=O)C(=O)N[C@@H](CO)C(=O)N[C@@H](Cc2ccccc2)C(=O)N[C@@H](CCCNC(=N)N)C(=O)N[C@@H](Cc2ccc(O)cc2)C(N)=O)NC(=O)CNC(=O)[C@H](CC(C)C)NC(=O)CNC(=O)[C@H](CO)NC(=O)[C@H](CCC(N)=O)NC(=O)[C@H](C)NC(=O)CNC1=O` [SEQ ID NO: 38, Ac-H-F-R-W-G-R-R-S-S-[C-F-G-G-R-M-D-R-I-G-A-Q-S-G-L-G-C]-N-S-F-R-Y-NH2] (Ac-HFRWGRRSSCFGGRMDRIGAQSGLGCNSFRY-NH2; disulfide 10-26), 6.9 nM.
In the case of `CC[C@H](C)[C@@H]1NC(=O)[C@H](CCCNC(=N)N)NC(=O)[C@H](CC(=O)O)NC(=O)[C@H](CCSC)NC(=O)[C@H](CCCNC(=N)N)NC(=O)CNC(=O)CNC(=O)[C@H](Cc2ccccc2)NC(=O)[C@@H](NC(=O)[C@H](CO)NC(=O)[C@H](CO)NC(=O)[C@H](CCCNC(=N)N)NC(=O)[C@H](CCCNC(=N)N)NC(=O)[C@H](CC(C)C)NC(=O)[C@@H](N)CO)CSSC[C@@H](C(=O)N[C@@H](CC(N)=O)C(=O)N[C@@H](CO)C(=O)N[C@@H](Cc2ccccc2)C(=O)N[C@@H](CCCNC(=N)N)C(=O)N[C@@H](Cc2ccc(O)cc2)C(=O)N[C@@H](Cc2c[nH]cn2)C(=O)N[C@H](Cc2ccccc2)C(=O)N[C@@H](CCCNC(=N)N)C(=O)N[C@@H](Cc2c[nH]c3ccccc23)C(N)=O)NC(=O)CNC(=O)[C@H](CC(C)C)NC(=O)CNC(=O)[C@H](CO)NC(=O)[C@H](CCC(N)=O)NC(=O)[C@H](C)NC(=O)CNC1=O` [SEQ ID NO: 40, S-L-R-R-S-S-[C-F-G-G-R-M-D-R-I-G-A-Q-S-G-L-G-C]-N-S-F-R-Y-H-f-R-W-NH2], the 50% effective concentration (EC50) was found to be 7000 nM.
`CCCC[C@@H]1NC(=O)[C@H](CCCNC(=N)N)NC(=O)CNC(=O)CNC(=O)[C@H](Cc2ccccc2)NC(=O)[C@H](Cc2c[nH]cn2)NC(=O)[C@@H](NC(=O)[C@H](CCCC)NC(=O)[C@@H]2CCCN2C(=O)[C@H](CCCCN)NC(=O)CNC(=O)[C@H](Cc2c[nH]c3ccccc23)NC(=O)[C@H](CCCNC(=N)N)NC(=O)[C@@H](Cc2ccccc2)NC(=O)[C@H](Cc2c[nH]cn2)NC(C)=O)CSSC[C@@H](C(=O)N[C@@H](Cc2ccc(O)cc2)C(=O)N[C@@H](CCCNC(=N)N)C(N)=O)NC(=O)[C@H](CO)NC(=O)[C@H]([C@@H](C)CC)NC(=O)[C@H](CCCNC(=N)N)NC(=O)[C@H](CC(=O)O)NC1=O` [SEQ ID NO: 34, Ac-H-f-R-W-G-K-P-Nle-[C-H-F-G-G-R-Nle-D-R-I-S-C]-Y-R-NH2] (Ac-H[dF]RWGKP[Nle]CHFGGR[Nle]DRISCYR-NH2; disulfide 9-20) registered an EC50 (NR = No response detected) of 132 nM.
